Test results as given in patent US10829452B2, “Histone methyltransferase inhibitors” (GLOBAL BLOOD THERAPEUTICS, INC., priority 2016, dated 2020).
Structures can show the parent of a compound that is named as a salt.

biological target: T1, G9a (Homo sapiens, UniProt Q96KQ7); test: G9a AlphaLISA enzymatic activity assay; assay type: biochemical; conditions: 0.15 nM G9a, 15 uM S-adenosyl-methionine, 100 nM biotinylated histone 3 peptide (1-21), 1 hour at room temperature; read-out: G9a in (uM) (IC50, concentration that produced 50% inhibition)
T1 sequence (Q96KQ7 1-1210): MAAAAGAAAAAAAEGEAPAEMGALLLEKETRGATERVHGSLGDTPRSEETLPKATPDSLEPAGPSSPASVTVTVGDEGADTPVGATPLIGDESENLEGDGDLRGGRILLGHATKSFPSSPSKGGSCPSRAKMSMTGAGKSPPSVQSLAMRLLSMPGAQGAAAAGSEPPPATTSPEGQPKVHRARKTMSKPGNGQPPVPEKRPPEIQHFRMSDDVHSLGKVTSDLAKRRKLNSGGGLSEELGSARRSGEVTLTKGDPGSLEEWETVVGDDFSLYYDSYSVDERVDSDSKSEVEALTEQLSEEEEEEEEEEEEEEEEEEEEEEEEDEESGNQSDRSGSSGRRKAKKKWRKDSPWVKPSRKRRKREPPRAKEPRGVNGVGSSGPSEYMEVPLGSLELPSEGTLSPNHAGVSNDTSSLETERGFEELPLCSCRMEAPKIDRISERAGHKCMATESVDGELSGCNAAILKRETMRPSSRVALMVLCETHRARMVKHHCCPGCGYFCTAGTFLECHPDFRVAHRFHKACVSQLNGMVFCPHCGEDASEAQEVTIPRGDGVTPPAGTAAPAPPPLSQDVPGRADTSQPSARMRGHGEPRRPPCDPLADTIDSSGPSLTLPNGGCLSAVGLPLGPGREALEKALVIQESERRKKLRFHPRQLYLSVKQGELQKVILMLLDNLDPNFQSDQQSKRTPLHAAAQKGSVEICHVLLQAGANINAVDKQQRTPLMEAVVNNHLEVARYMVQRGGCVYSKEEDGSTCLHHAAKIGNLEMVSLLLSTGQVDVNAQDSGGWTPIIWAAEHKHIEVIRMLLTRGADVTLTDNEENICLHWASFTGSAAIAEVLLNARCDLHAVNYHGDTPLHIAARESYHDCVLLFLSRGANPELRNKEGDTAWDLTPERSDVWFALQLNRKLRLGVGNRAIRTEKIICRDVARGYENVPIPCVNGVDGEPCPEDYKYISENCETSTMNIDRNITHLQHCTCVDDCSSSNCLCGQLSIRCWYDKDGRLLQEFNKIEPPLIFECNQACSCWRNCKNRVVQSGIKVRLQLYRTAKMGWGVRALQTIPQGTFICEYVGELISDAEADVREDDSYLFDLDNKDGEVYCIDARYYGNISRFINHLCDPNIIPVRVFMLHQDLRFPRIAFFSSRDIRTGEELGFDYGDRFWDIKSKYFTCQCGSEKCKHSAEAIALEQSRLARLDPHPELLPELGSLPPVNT
Text: The G9a AlphaLISA assay was used to detect the methyl modifications of a biotinylated histone H3 peptide by the compounds. These modifications are done by the histone methyl transferase activity of the G9a enzyme. The assay consists of reading a chemiluminescent signal at 615 nm; this signal is generated by a laser excitation at 680 nm that transfers a reactive singlet oxygen between the donor beads and acceptor beads. Donor beads are streptavidin conjugated and bind to the biotin on the peptide. Acceptor beads are conjugated with an antibody that recognizes the specific G9a methyl mark on the peptide. If there is a methyl mark on the peptide, the acceptor beads will bind to the peptide. Upon binding, the acceptor beads will be in close proximity (<200 nm) of the donor beads and when the donor beads are excited, the transfer of the oxygen can occur and a strong signal will be generated. If there is no methyl mark, the interaction between beads will not occur and signal will be at background levels.
For the assay, the following buffer was used to set up reactions: 50 mM Tris-HCl pH9, 50 mM NaCl, 0.01% Tween-20 and 1 mM DTT (added fresh prior to starting the reactions). The assay is set up by adding a final concentration of 0.15 nM G9a, 15 uM S-adenosyl-methionine and, 100 nM biotinylated histone 3 peptide (1-21). The reaction is incubated at room temperature for 1 hour, and subsequently quenched by the addition of the acceptor beads (anti-H3k9me2 AlphaLISA acceptor beads, PerkinElmer # AL117) at a final concentration of 20 ug/mL. The acceptor beads are incubated for 1 hour. After 1 hour, the donor beads are added at a final concentration of 20 ug/mL (Alpha Streptavidin donor beads, PerkinElmer #6760002). Donor beads are incubated for 0.5 hours. Both donor and acceptor beads are resuspended in AlphaLISA 5X Epigenetics Buffer 1 Kit (PerkinElmer # AL008) prior to addition to the reaction. All manipulations and incubations with the donor and acceptor beads are done in subdued light. Signal is detected in an EnVision plate reader in Alpha mode (see ACS Med Chem Lett. 2014 Jan. 2; 5(2):205-9. doi: 10.1021/m1400496h. eCollection 2014. Discovery and development of potent and selective inhibitors of histone methyltransferase g9a.)
Percent inhibition was calculated for each compound dilution and the concentration that produced 50% inhibition was calculated. This value is presented as the IC50.

IC50 [µM]	SMILES
0.029	CNc1nc2cc(OCCCN3CCCC3)c(OC)cc2c2c1CCCC2 [Example 2, 2-methoxy-N-methyl-3-[3-(pyrrolidin-1-yl)propoxy]-7,8,9,10-tetrahydrophenanthridin-6-amine formate]
0.046	COc1cc2c3c(c(NCC4CCC4)nc2cc1OCCCN1CCCC1)CCC3 [Example 49, N-(cyclobutylmethyl)-8-methoxy-7-[3-(pyrrolidin-1-yl)propoxy]-1H,2H,3H-cyclopenta[c]quinolin-4-amine formate]
0.006	COc1cc2c3c(c(NC(C)C)nc2cc1OCCCN1CCCC1)CCCN3 [Example 27, 9-methoxy-N-(propan-2-yl)-8-[3-(pyrrolidin-1-yl)propoxy]-1H,2H,3H,4H-benzo[h]1,6-naphthyridin-5-amine trifluoroacetate]
0.11	COc1cc2c3c(c(N[C@H]4C[C@H](O)C4)nc2cc1OCCCN1CCCC1)CCC3 [Example 16, (1r,3r-3-({8-methoxy-7-[3-(pyrrolidin-1-yl)propoxy]-1H,2H,3H-cyclopenta[c]quinolin-4-yl}amino)cyclobutan-1-ol trifluoroacetate]
0.084	COc1cc2c3c(c(NCC4CC4)nc2cc1OCCCN1CCCC1)CC(C)(C)C3 [Example 97, N-(cyclopropylmethyl)-8-methoxy-2,2-dimethyl-7-[3-(pyrrolidin-1-yl)propoxy]-1H,2H,3H-cyclopenta[c]quinolin-4-amine formate]
> 10	COc1cc2c3c(c(C4CCOC4)nc2cc1OCCCN1CCCC1)CCC3 (stereo not drawn) [Example 98, 1-(3-{[8-methoxy-4-(oxolan-3-yl)-1H,2H,3H-cyclopenta[c]quinolin-7-yl]oxy}propyl)pyrrolidine formate]
0.006	COc1cc2c3c(c(C)nc2cc1OCCCN1CCCC1)CCCCN3 [Example 82, 1-[3-({10-methoxy-6-methyl-1H,2H,3H,4H,5H-azepino[3,2-c]quinolin-9-yl}oxy)propyl]pyrrolidine trifluoroacetate]
0.009	COc1cc2c3c(c(C4CC4)nc2cc1OCCCN1CCCC1)CCCCN3 [Example 80, 1-[3-({6-cyclopropyl-10-methoxy-1H,2H,3H,4H,5H-azepino[3,2-c]quinolin-9-yl}oxy)propyl]pyrrolidine trifluoroacetate]
0.24	COc1cc2c3c(c(NC(C)C)nc2cc1OCCCN1CCCC1)COCC3 [Example 50, 9-methoxy-N-(propan-2-yl)-8-[3-(pyrrolidin-1-yl)propoxy]-1H,2H,4H-pyrano[3,4-c]quinolin-5-amine formate]
0.04	COc1cc2c3c(c(NCCO)nc2cc1OCCCN1CCCC1)CCC3 [Example 4, 2-({8-methoxy-7-[3-(pyrrolidin-1-yl)propoxy]-1H,2H,3H-cyclopenta[c]quinolin-4-yl}amino)ethan-1-oltrifluoroacetate trifluoroacetate]
0.62	COc1cc2c3c(cnc2cc1OCCCN1CCCC1)CCC3 [Example 21, 1-[3-({8-methoxy-1H,2H,3H-cyclopenta[c]quinolin-7-yl}oxy)propyl]pyrrolidine trifluoroacetate]
0.022	COc1cc2c3c(c(C4CC4)nc2cc1OCCCN1CCCC1)CCC(C)N3 (stereo not drawn) [Example 32, 1-[3-({5-cyclopropyl-9-methoxy-2-methyl-1H,2H,3H,4H-benzo[h]1,6-naphthyridin-8-yl}oxy)propyl]pyrrolidine trifluoroacetate]
0.021	COc1cc2c3c(c(NC4CC4)nc2cc1OCCCN1CCCC1)CCC3 [Example 105, N-cyclopropyl-8-methoxy-7-[3-(pyrrolidin-1-yl)propoxy]-1H,2H,3H-cyclopenta[c]quinolin-4-amine trifluoroacetate]
0.009	CNc1nc2cc(OCCCN3CCCC3)c(OC)cc2c2c1CCC(C)N2 (stereo not drawn) [Example 29, 9-methoxy-N,2-dimethyl-8-[3-(pyrrolidin-1-yl)propoxy]-1H,2H,3H,4H-benzo[h]1,6-naphthyridin-5-amine formate]
0.5	COc1cc2c3c(c(NC4CCN(C)CC4)nc2cc1OCCCN1CCCC1)CCC3 [Example 41, N-{8-methoxy-7-[3-(pyrrolidin-1-yl)propoxy]-1H,2H,3H-cyclopenta[c]quinolin-4-yl}-1-methylpiperidin-4-amine formate]
0.013	Cl.Cl.[2H]C(C)(C)Nc1nc2cc(OCCCN3CCCC3)c(OC)cc2c2c1CCC2 [Example 102, 8-methoxy-N-[(2-^2H)propan-2-yl]-7-[3-(pyrrolidin-1-yl)propoxy]-1H,2H,3H-cyclopenta[c]quinolin-4-amine hydrochloride]
0.009	COc1cc2c3c(c(C)nc2cc1OCCCN1CCCC1)CCC(C)N3 (stereo not drawn) [Example 31, 1-[3-({9-methoxy-2,5-dimethyl-1H,2H,3H,4H-benzo[h]1,6-naphthyridin-8-yl}oxy)propyl]pyrrolidine trifluoroacetate]
0.059	COc1cc2c3c(c(NC(C)C)nc2cc1OCCCN(C)C)CCC3 [Example 92, 7-[3-(dimethylamino)propoxy]-8-methoxy-N-(propan-2-yl)-1H,2H,3H-cyclopenta[c]quinolin-4-amine formate]
3	COc1cc2c3c(c(O)nc2cc1OCCCN1CCCC1)CCCC3 [Example 38, 2-methoxy-3-[3-(pyrrolidin-1-yl)propoxy]-7,8,9,10-tetrahydrophenanthridin-6-ol trifluoroacetate]
0.5	COc1cc2c3c(c(N[C@H]4C[C@H](O)C4)nc2cc1OCCCN1CCCC1)CCCC3 [Example 64, 3-({2-methoxy-3-[3-(pyrrolidin-1-yl)propoxy]-7,8,9,10-tetrahydrophenanthridin-6-yl}amino)cyclobutan-1-ol formate]
0.74	COc1cc2c3c(c(NCC(F)(F)F)nc2cc1OCCCN1CCCC1)CCC3 [Example 65, 8-methoxy-7-[3-(pyrrolidin-1-yl)propoxy]-N-(2,2,2-trifluoroethyl)-1H,2H,3H-cyclopenta[c]quinolin-4-amine formate]
4.9	COc1cc2c3c(c(-c4ccccc4)nc2cc1OCCCN1CCCC1)CCC3 [Example 111, 1-[3-({8-methoxy-4-phenyl-1H,2H,3H-cyclopenta[c]quinolin-7-yl}oxy)propyl]pyrrolidine formate]
0.003	COc1cc2c3c(c(N[C@@H](C)C4CC4)nc2cc1OCCCN1CCCC1)CCC3 [Example 88, N-[(1S)-1-cyclopropylethyl]-8-methoxy-7-[3-(pyrrolidin-1-yl)propoxy]-1H,2H,3H-cyclopenta[c]quinolin-4-amine formate]
0.018	COc1cc2c3c(c(N)nc2cc1OCCCN1CCCC1)CC(C)(C)C3 [Example 118, 8-methoxy-2,2-dimethyl-7-[3-(pyrrolidin-1-yl)propoxy]-1H,2H,3H-cyclopenta[c]quinolin-4-amine formate]
